From PMC4077824, “Conserved Prosegment Residues Stabilize a Late-Stage Folding Transition State of Pepsin Independently of Ground States” (PLoS ONE, 2014)
Values joined by “and” are separate entries in the source; they are usually repeats but may differ in a detail not shown here. Equal values may be shown once. “Also recorded” adds a separate entry of the source. Where no end group is shown, it is not given here.

What was measured:
refolded pepsin (Rp) [1] = target: T1, refolded pepsin (Rp) (Sus scrofa, UniProt P00791); test: PS binding to Rp (Trp-fluorescence); parameters: species or system porcine; conditions: for Kd: 0.6-1.2 µM Rp, 20 mM acetic acid/NaOH pH 5.3 without added NaCl, ≥10 min, Trp-fluorescence ex 295 nm, em 315 nm, mean ± SD from non-linear curve fitting, 3-5 measurements, read-out: K d (PS-Rp dissociation constant); for Kd / ΔΔGPS-Rp (change in PS-Rp binding energy upon mutation): 20°C; for ΔΔGPS-Rp (change in PS-Rp binding energy upon mutation): from K d, pH 5.3, relative to WT, ± SD by propagation of errors
T1 construct: Only the R13 and K36 side-chains of the PS form hydrogen bonds with the mature pepsin domain; purchased Sigma (St. Louis, MO, USA)
Description: The change in intrinsic tryptophan fluorescence of pepsin was used to measure the binding of PS to Rp and to determine the dissociation constant, K d. Rp solutions were diluted to between 0.6 and 1.2 µM in 20 mM acetic acid/NaOH buffer, pH 5.3, and mixed with various amounts of PS. After incubating the samples at 20°C for ≥10 minutes, the intrinsic tryptophan fluorescence was measured using a PTI spectrofluorophotometer (Photon Technology International, Inc., Birmingham NJ, USA), with excitation at 295 nm and emission measured at 315 nm. The change in fluorescence, ΔF i, at each PS concentration, [PS], was normalized relative to the maximum change, ΔF max, and fit according to [drawing 1] (1) where [Rp] is the total concentration of pepsin.
PS binding to Rp was measured in buffer without added 100 mM NaCl in order to obtain more accurate measurements of K d, owing to a larger change in signal in the absence of salt. Additionally, without added 100 mM NaCl it was possible to isolate the PS-Rp binding step from the catalyzed folding step thereby improving the determination of K d.
(§1) The change in stability of the folding transition state upon mutation was calculated using [drawing 3] (3) where k f, wt and k f, mut are the PS-catalyzed folding rate constants of the wild-type and mutant PS peptides. The change in equilibrium stability of PS-Np relative to PS-Rp upon mutation of the PS (ΔΔGPS(Np-Rp)) was determined as the difference between the changes in binding energies, using [drawing 4] (4) and [drawing 5] (5)
(§2) Here, ΔΔGbind refers to either ΔΔGPS-Rp, determined from K d values, or ΔΔGPS-Np, determined from K i values. The Φ-value for each mutant corresponds to eq 3 divided by eq 5. Additional details are included in the supporting information section (Text S1).

refolded pepsin (Rp) [2] = target: T1, refolded pepsin (Rp); test: PS-catalyzed folding of Rp to Np (recovery of Np activity); assay type: biochemical, porcine; conditions: for k f (PS-catalyzed folding rate constant): 1 µM Rp, 30 µM PS, pH 5.3 (20 mM acetic acid/NaOH, 100 mM NaCl), Np activity assayed at pH 1.2, 25°C with KPAEFF(NO2)AL, monoexponential fit, mean ± SD from non-linear curve fitting, 3-5 measurements; for k f (PS-catalyzed folding rate constant) / ΔΔG^‡ (change in folding activation energy upon mutation): 15°C; for ΔΔG^‡ (change in folding activation energy upon mutation): from k f, pH 5.3, relative to WT, ± SD by propagation of errors; for effect on rate of PS-catalyzed folding (in words): pH 5.3, 15°C, compared with PSwt
Description: PS-catalyzed folding of Rp to Np
PS-catalyzed folding was carried out by combining 1 µM Rp and 30 µM PS, in a volume of 100 µl, at pH 5.3 (20 mM acetic acid/NaOH with 100 mM NaCl) and 15°C. Aliquots were taken at several time intervals, diluted 20-fold in 50 mM phosphoric acid buffer, pH 1.2, incubated for 5 min at 25°C and assayed for Np activity using the KPAEFF(NO2)AL substrate. The recovery of Np activity with time, t, was fit with a monoexponential function (y = a – bexp(–k f t)) to obtain the PS-catalyzed folding rate constant, k f. Under these conditions, PS binding to Rp reached equilibrium within the dead-time of mixing (<8 sec), as judged by Trp-fluorescence.
as §1
Temperature dependence of PS-catalyzed folding
PS-catalyzed folding could be measured only up to 15 °C for PSwt, as the reaction was too fast at higher temperatures. […] Given the linear temperature dependence it could be reasonably assumed that changes in activation energies (mutant – wild-type) would be unchanged from 15 °C to 20 °C, and so could be compared directly with changes in binding energies (wild-type – mutant) that were determined at 20 °C.

native pepsin (Np) = target: T2, native pepsin (Np) (Sus scrofa, UniProt P00791); test: PS binding to Np (competitive inhibition of KPAEFF(NO2)AL hydrolysis); assay type: biochemical, porcine; conditions: for Ki: 10 nM Np, 20 mM acetic acid/NaOH pH 5.3, 100 mM NaCl, 5 min incubation, substrate KPAEFF(NO2)AL 0.1 mM, absorbance 300 nm, competitive model, mean ± SD from non-linear curve fitting, 3-5 measurements, read-out: K i (PS-Np inhibition constant); for Ki / ΔΔGPS-Np (change in PS-Np binding energy upon mutation): 20°C; for ΔΔGPS-Np (change in PS-Np binding energy upon mutation): from K i, pH 5.3, relative to WT, ± SD by propagation of errors; for effect on affinity for Np / PS-Np stability (in words): pH 5.3, 20°C, PS inhibition of Np, compared with PSwt
T2 construct: Only the R13 and K36 side-chains of the PS form hydrogen bonds with the mature pepsin domain; purchased Sigma (St. Louis, MO, USA)
Description: PS binding to Np was determined by using the PS as a competitive inhibitor and measuring the inhibition constant, K i. Hydrolysis of the KPAEFF(NO2)AL substrate was measured by following the decrease in absorbance at 300 nm using a Biochrom Ultrospec 3100pro UV-Vis spectrophotometer (Biochrom Ltd., Cambridge, England) in 20 mM acetic acid/NaOH buffer, pH 5.3, containing 100 mM NaCl. Np samples were diluted to 10 nM and incubated with PS for 5 min at 20°C and assayed for activity. The reaction rates were normalized to the activity in the absence of PS and the data fit using the competitive inhibitor form of the Michaelis-Menten equation [drawing 2] (2) where v0 is the initial reaction rate, V max is the maximum reaction rate, [S] is the substrate concentration (fixed at 0.1 mM), [I] is the inhibitor concentration, and K M is the Michaelis constant.
as §1, §2

[3] = system: pepsin (PS-Rp, PS-TS, PS-Np complexes); test: Φ-value analysis from PS-catalyzed folding and binding constants; parameters: species or system porcine; conditions: ± SD by propagation of errors; for Φ: ratio ΔΔG^‡/ΔΔGPS(Np-Rp); for ΔΔGPS(Np-Rp) (change in equilibrium stability of PS-Np relative to PS-Rp): ΔΔGPS-Np minus ΔΔGPS-Rp
Description: Calculation of Φ-values from PS-catalyzed folding and binding constants
as §1, §2
As outlined below, ∆Gbind values are used to calculate ∆∆GPS(Np-Rp), which is the change in the equilibrium free energy difference between PS-Np and PS-Rp upon mutation of the PS (for a diagram of the folding reaction, see Fig S1)
ΔΔGbind can refer to either ∆∆G^PS-Np(wt-mut) or ∆∆G^PS-Rp(wt-mut). Also, we can write ∆Gbind in terms of its components
where ∆GPS, ∆Gpepsin and ∆Gsolvent refer to the change in free energy of the PS, pepsin and the solvent upon PS binding to pepsin, respectively. Combining equations S1 and S2 gives
The contribution of each component to ∆∆Gbind will depend on the particular mutation (e.g., nature of substitution, location within folded structure, solvent accessibility). This is the general case for protein engineering analysis, in which the effects of mutations on changes in equilibrium and activation energies are the result of many individual interaction energy terms, including solvent terms, as previously explained in detail [Fersht AR, Matouschek A, Serrano L (1992) The folding of an enzyme I. Theory of protein engineering analysis of stability and pathway of protein folding. J Mol Biol 224: 771‒782]. Most importantly, there is no requirement to separate ΔΔGbind into its components in order to proceed with analysis as we are interested in the overall change in equilibrium stability of the PS-pepsin complex (∆∆GPS(Np-Rp))
This bimolecular approach to Φ-value analysis of protein folding is qualitatively identical to Φ-value analysis as it was originally applied to the study of enzyme catalysis. As outlined previously [Fersht AR], changes in the free energy of enzyme (E) binding to substrate (S) or product (P) are used to determine the change in free energy difference between E-P and E-S upon mutation, ∆∆G^EP-ES(wt-mut), where
As these are at the scale of global energy terms, equations S4 and S5 are equivalent and PS-catalyzed folding can be treated similarly as enzyme catalysis, in which the PS is the foldase and the denatured and natively folded protein are the substrate and product, respectively. However, protein folding reactions are more complicated to interpret at the level of individual interaction energy terms, which are more numerous [Fersht AR].
Changes in the binding energies between PS-Rp and PS-Np upon PS mutation can then be used to determine Φ-values with the following considerations:
1. Free PS is unstructured (see Fig S6), so Ala mutations are expected to have a negligible effect on the stability and conformation of free PS.
2. Changes in binding and folding upon mutation can be localized to the loss of interactions in the immediate vicinity of the truncation mutation (i.e., larger residue mutated to Ala), and not due to gross conformational changes of the PS or changes in the binding/folding mechanism (consider as strong evidence that all of the mutant PS’s readily catalyze folding to the native, active form).
3. Changes in PS-Rp and PS-Np binding energies upon mutation (∆∆G^PS-Np(wt-mut) and ∆∆G^PS-Rp(wt-mut)) are measured directly, while the change in the PS-TS binding energy (∆∆G^PS-TS(wt-mut)) is the sum of ∆∆G^PS-Rp(wt-mut) and ∆∆G^‡(wt-mut).
4. Φ-values are calculated using […]

pepsin = conditions: native state relative to an intermediate state; ref [7]; cited from earlier work
From the text: General thermodynamic and kinetic features of protein folding are known, such as that the natively folded conformation of a protein is thermodynamically stabilized and that there is a relationship between topology and folding rate, which holds for both two-state and multi-state folding proteins, [3]. However, zymogen-derived proteins which require a prosegment (PS) domain to catalyze folding, such as the serine peptidases αLP [4], SGPB [5], and subtilisin [6], and the aspartic peptidase pepsin [7], deviate from the common thermodynamic and kinetic trends in protein foldin ... || Pepsin, which is derived from its zymogen pepsinogen, folds to a thermodynamically stable yet non-native form (termed refolded pepsin, Rp) upon removal from denaturing conditions. […] In the case of pepsin, Rp was characterized by a ΔG unf of 5.8 kcal/mol, a 10% increase in unordered secondary structure and identical tertiary structure to Np (both yield R g ∼20 Å).

[4] = pH 5.3, 20°C, compared with PSwt

T1 sequence (P00791 60-385): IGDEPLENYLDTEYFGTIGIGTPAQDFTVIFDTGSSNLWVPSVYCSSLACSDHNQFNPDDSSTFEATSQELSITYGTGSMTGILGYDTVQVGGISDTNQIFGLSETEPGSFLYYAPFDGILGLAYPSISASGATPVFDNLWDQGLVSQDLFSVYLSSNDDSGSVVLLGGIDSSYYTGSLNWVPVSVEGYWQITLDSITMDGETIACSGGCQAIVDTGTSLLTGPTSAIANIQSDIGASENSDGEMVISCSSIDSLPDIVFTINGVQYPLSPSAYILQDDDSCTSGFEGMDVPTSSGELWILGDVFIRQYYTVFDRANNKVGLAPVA
T2 sequence (P00791 60-385): as above

Row | Substance | Kd (refolded pepsin (Rp) [1]) | ΔΔGPS-Rp (change in PS-Rp binding energy upon mutation) (refolded pepsin (Rp) [1]) | k f (PS-catalyzed folding rate constant) (refolded pepsin (Rp) [2]) | ΔΔG^‡ (change in folding activation energy upon mutation) (refolded pepsin (Rp) [2]) | effect on rate of PS-catalyzed folding (in words) (refolded pepsin (Rp) [2]) | Ki (native pepsin (Np)) | ΔΔGPS-Np (change in PS-Np binding energy upon mutation) (native pepsin (Np)) | Φ [3] | ΔΔGPS(Np-Rp) (change in equilibrium stability of PS-Np relative to PS-Rp) [3] | effect on affinity for Rp / PS-Rp stability (in words) (refolded pepsin (Rp) [1]; [4]) | reduction in binding affinity for Rp (refolded pepsin (Rp) [1]; [4]) | effect on affinity for Np / PS-Np stability (in words) (native pepsin (Np)) | ΔG N-I (pepsin)
1 | LVKVPAVRKKSLRQNLIKNGKLKDFLKTHKHNPASKYFPEAAAL [L6A] | 640 ± 90 nM | 0.43 ± 0.10 kcal/mol | 0.13 ± 0.01 min⁻¹ | 1.36 ± 0.15 kcal/mol | slowest folding rate | 193 ± 38.8 nM | 0.64 ± 0.16 kcal/mol |  |  |  |  |  | 
2 | LVKVPLVRKKALRQNLIKNGKLKDFLKTHKHNPASKYFPEAAAL [S11A] | 680 ± 70 nM | 0.47 ± 0.08 kcal/mol | 0.18 ± 0.02 min⁻¹ | 1.18 ± 0.15 kcal/mol | a burst-phase in the folding kinetics was noticeable | 270 ± 31.5 nM | 0.83 ± 0.12 kcal/mol | 3.2±1.4 | 0.36 ± 0.15 kcal/mol |  |  |  | 
3 | LVKVPLVRKKSLAQNLIKNGKLKDFLKTHKHNPASKYFPEAAAL [R13A] | 1960 ± 290 nM | 1.08 ± 0.10 kcal/mol | 0.24 ± 0.02 min⁻¹ | 1.02 ± 0.15 kcal/mol |  | 382 ± 37.2 nM | 1.03 ± 0.12 kcal/mol |  |  | destabilized both the PS-Np and PS-Rp complexes | 7 fold | largest reduction in affinities for Np; also recorded: destabilized both the PS-Np and PS-Rp complexes | 
4 | LVKVPLVRKKSLRQNLIKNGKLKDALKTHKHNPASKYFPEAAAL [F25A] | 250 ± 30 nM | -0.12 ± 0.08 kcal/mol | 0.26 ± 0.04 min⁻¹ | 0.96 ± 0.17 kcal/mol |  | 230 ± 29.1 nM | 0.74 ± 0.13 kcal/mol | 1.1 and 1.1±0.3 | 0.86 ± 0.15 kcal/mol | negligible effect on PS-Rp binding |  |  | 
5 | LVKVPLVRKKSLRQNLIKNGKLKDFLKTHKHNPASAYFPEAAAL [K36A] | 720 ± 140 nM | 0.50 ± 0.13 kcal/mol | 0.28 ± 0.03 min⁻¹ | 0.94 ± 0.15 kcal/mol |  | 113 ± 20.3 nM | 0.33 ± 0.15 kcal/mol |  |  | nearly equally destabilizing to PS-Rp and PS-Np |  | nearly equally destabilizing to PS-Rp and PS-Np | 
6 | pepsin: Porcine pepsin A (EC 3.4.23.1); native pepsin (Np) |  |  |  |  |  |  |  |  |  |  |  |  | -0.1 kcal/mol
